Key:
[1] = Physical stability; visual assessment (color, turbidity, phase separation); format: physicochemical; set-up: key: ++: no discernible change with respect to color, turbidity or phase separation; +: marginal change in color number, somewhat increased Tyndall effect but no turbidity; 0: easily discernible increase in color number and moderate turbidity−no phase separation; −: turbidity and change in color number readily discernible by visual assessment; −−: strong color change with strong turbidity and incipient phase separation
Source text: Physical stability; visual assessment according to:
++=no discernible change with respect to color, turbidity or phase separation; +=marginal change in color number, somewhat increased Tyndall effect but no turbidity; 0=easily discernible increase in color number and moderate turbidity−no phase separation; − turbidity and change in color number readily discernible by visual assessment; −− strong color change with strong turbidity and incipient phase separation.
Before storage, all batches could be rated ++ (no turbidity or phase separation; no influence of the biocide on the color number of the product).

[2] = system: Yeast: Candida albicans, Candida valida, Rhodotorula rura, Saccharomyces cerevisiae; assay: Preservation test with periodic inoculation, yeast assessment; format: cell-based; settings: for Start sample measurement, yeast assess., 4th inoculation: freshly formulated; for 60 d 40° C., yeast assess., 4th inoculation: sample stored 60 d at 40° C.
Method: (§1) Microbiological results at the start (freshly formulated, i.e. 4-week test series is started immediately) and after 60 days of storage at 40° C. (i.e. the 4-week microbial testing is started with the sample stored at 40° C. for 60 days)
(§2) The test described below is carried out in order to ascertain the preserving effect of chemical preservatives in aqueous products and systems, the principle of the described method reflecting the efficacy of chemical preservatives with respect to pot-maintenance of aqueous products/systems under conditions corresponding to the use of laundry products/consumer products by the consumer. For this purpose, the preservatives to be tested are added in those concentrations which correspond to from the literature or to the manufacturer data from the suppliers (e.g. Thor, Speyer). In said test, our orientation was toward the upper range, which, with the exception of VI-containing polymers, had always led to excellent results in the case of aqueous polymers for laundry.
(§3) A constant microorganism load is achieved by periodic inoculation of the test batches. Before the swabs of each batch made respectively immediately in parallel with the inoculation. The assessment is made on the basis of the microbial growth of the streaks.
(§4) When carrying out said tests, 25 g of the polymer to be tested are weighed in each case into a vessel with a screw cap. The preservatives to be tested are each added in separate batches according to the specified use concentrations. An unpreserved product sample was used in each case for the growth control. Two days after the addition of the preservative, the samples are infected with 0.5 ml of inoculum (2% w/w). The titer of this inoculant solution is 10^9 organisms per ml. The following microorganisms are the test organisms for the preservation test:
(§5) • Escherichia coli • Staphylococcus aureus • Pseudomonas aeruginosa • Pseudomonas putida • Burkholderia cepacia • Alcaligenes faecalis Yeast: • Candida albicans • Candida valida • Rhodotorula rura • Saccharomyces cerevisiae
(§6) The test batches are inoculated four times altogether and once a week and are streaked on an agar plate once a week; the first streaking is done immediately before the new inoculation. Microbial growth on the agar surface is assessed after a three-day incubation at 25° C. As a precaution, negative swabs are additionally observed for a further three days and reassessed. The preserving effect is effected in a semiquantitative method via the growth of the individual streaks in accordance with the assessment from − via + to +++. The preservative result is repeatedly demonstrably robust, i.e. +++− defines the microbial growth.
(§7) When assessing the results, it is assumed that a preservative can be regarded as good if there are batches under the above-described laboratory conditions for a period of four weeks without microbial invasion of the sample, and that, even after the fourth inoculation, no microbial attacks occur growth can be identified. • −−: no growth • −: slight growth, max. 100 colonies • 0: moderate growth, max. 400 colonies • +: uniform growth with individual colonies still easily identifiable • ++: strong growth; too many colonies to be counted, already some extensive growth

[3] = system: Bacteria: Escherichia coli, Staphylococcus aureus, Pseudomonas aeruginosa, Pseudomonas putida, Burkholderia cepacia, Alcaligenes faecalis; assay: Preservation test with periodic inoculation, bacteria assessment; format: cell-based; settings: sample stored 60 d at 40° C.
Method: as §1, §2, §3, §4, §5, §6, §7

SMILES: CCCCCCCCCCCCCCCC[n+]1ccccc1 [CPC, cetylpyridinium chloride]
- Physical stability, 60 d 40° C.* ([1]; Polymer P1 with stabilizer): +
- Physical stability, 60 d 40° C.* ([1]; Polymer P2 with stabilizer): +
- Physical stability, 60 d 40° C.* ([1]; Polymer P3 with stabilizer): +
- Physical stability, 60 d 40° C.* ([1]; Polymer P4 with stabilizer): +
- Physical stability, 60 d 40° C.* ([1]; Polymer P5 (HP56) with stabilizer): +
- Physical stability, 60 d 40° C.* ([1]; Polymer P6 with stabilizer): +
- Physical stability, 60 d 40° C.* ([1]; Polymer P7 with stabilizer): +
- Physical stability, 60 d 40° C.* ([1]; Polymer P8 with stabilizer): +
- Physical stability, 60 d 40° C.* ([1]; Polymer P9 with stabilizer): +
- Start sample measurement, yeast assess., 4th inoculation ([2]; Polymer P1): − (slight growth, max. 100 colonies)
- 60 d 40° C., yeast assess., 4th inoculation ([2]; Polymer P1): − (slight growth, max. 100 colonies)
- Start sample measurement, yeast assess., 4th inoculation ([2]; Polymer P2): − (slight growth, max. 100 colonies)
- 60 d 40° C., yeast assess., 4th inoculation ([2]; Polymer P2): − (slight growth, max. 100 colonies)
- Start sample measurement, yeast assess., 4th inoculation ([2]; Polymer P3): − (slight growth, max. 100 colonies)
- 60 d 40° C., yeast assess., 4th inoculation ([2]; Polymer P3): 0 (moderate growth, max. 400 colonies)
- Start sample measurement, yeast assess., 4th inoculation ([2]; Polymer P4): − (slight growth, max. 100 colonies)
- 60 d 40° C., yeast assess., 4th inoculation ([2]; Polymer P4): 0 (moderate growth, max. 400 colonies)
- Start sample measurement, yeast assess., 4th inoculation ([2]; Polymer P5 (HP56)): − (slight growth, max. 100 colonies)
- 60 d 40° C., yeast assess., 4th inoculation ([2]; Polymer P5 (HP56)): 0 (moderate growth, max. 400 colonies)
- Start sample measurement, yeast assess., 4th inoculation ([2]; Polymer P6): − (slight growth, max. 100 colonies)
- 60 d 40° C., yeast assess., 4th inoculation ([2]; Polymer P6): 0 (moderate growth, max. 400 colonies)
- Start sample measurement, yeast assess., 4th inoculation ([2]; Polymer P7): − (slight growth, max. 100 colonies)
- 60 d 40° C., yeast assess., 4th inoculation ([2]; Polymer P7): 0 (moderate growth, max. 400 colonies)
- Start sample measurement, yeast assess., 4th inoculation ([2]; Polymer P8): − (slight growth, max. 100 colonies)
- 60 d 40° C., yeast assess., 4th inoculation ([2]; Polymer P8): 0 (moderate growth, max. 400 colonies)
- Start sample measurement, yeast assess., 4th inoculation ([2]; Polymer P9): − (slight growth, max. 100 colonies)
- 60 d 40° C., yeast assess., 4th inoculation ([2]; Polymer P9): − (slight growth, max. 100 colonies)
- 60 d 40° C., bact. assess., 4th inoculation ([3]; Polymer P1): − (slight growth, max. 100 colonies)
- 60 d 40° C., bact. assess., 4th inoculation ([3]; Polymer P2): − (slight growth, max. 100 colonies)
- 60 d 40° C., bact. assess., 4th inoculation ([3]; Polymer P3): − (slight growth, max. 100 colonies)
- 60 d 40° C., bact. assess., 4th inoculation ([3]; Polymer P4): 0 (moderate growth, max. 400 colonies)
- 60 d 40° C., bact. assess., 4th inoculation ([3]; Polymer P5 (HP56)): − (slight growth, max. 100 colonies)
- 60 d 40° C., bact. assess., 4th inoculation ([3]; Polymer P6): − (slight growth, max. 100 colonies)
- 60 d 40° C., bact. assess., 4th inoculation ([3]; Polymer P7): − (slight growth, max. 100 colonies)
